Test results from patent US20190185544A1, “COMPOSITIONS AND METHODS OF MODULATING ABETA PROTEIN” (University of South Florida, priority 2016, published 2019).

Columns and labels:
[1] = test system: CHO/APPwt cells; test: APP processing and cell surface protein expression in CHO/APPwt cells (ELISA, WB, biotinylation, flow cytometry, confocal microscopy); assay type: cell-based, Chinese hamster
Method: In addition, full-length APP (f-APP, short and long exp, exposure), α/β-CTF and total APP in cell lysates were analyzed by WB using anti-C-terminal APP750/70 (pC-APP, left panel, FIG. 23C) and anti-N-terminal APP antibody (6E10, right panel, FIG. 23C). Cell lysates were also biotinylated and immunoprecipitated using Neutravidin beads and intracellular proteins obtained by Neutravidin depletion (intra) and cell surface proteins obtained by Neutravidin precipitation (cell surf) were analyzed for f-APP, LDLR and LRP1 by WB using 6E10, anti-LDLR and anti-LRP1 (FIG. 23D). Band density ratios of cell surf or intra to total f-APP was determined by densitometry analysis (FIG. 23E). Cellular membrane associated full-length APP was analyzed by flow cytometry and presented as means±s.d. median FL-1-A (FIG. 23F). […] Asterisk indicates P<0.05 compared with Ctrl as determined by t test.
In addition, some of the cells were biotinylated, cell lysates were immunoprecipitated using Neutravidin beads and cell surface (cell surf) proteins obtained by Neutravidin precipitation, intracellular (intra) proteins obtained by Neutravidin depletion and total proteins were analyzed for full-length APP by WB using pC-APP (pAPP751/770) (FIG. 27B). […]

[2] = test system: CHO/APPswe cells; test: Aβ and β-CTF in CHO/APPwt compared with CHO/APPswe cells; assay type: cell-based, Chinese hamster; conditions: apoE4 0, 5, 10 μg/mL or 6KApoEp 0, 5, 10 μM, 2 h, serum-free medium
Method: CHO cells engineered to express human wild-type APP (CHO/APPwt) or Swedish mutant APP (CHO/APPswe) were obtained. These cells were cultured in 96 or 24 well plates at 4×10^4 or 2×10^5 cells/well, respectively, in Dulbecco's modified Eagle's medium (DMEM) with 10% fetal bovine serum, 1 mM sodium pyruvate and 100 U/mL of penicillin/streptomycin (Invitrogen, Thermo Fisher Scientific). In addition, murine N2a cells transfected with APPwt (N2a/APPwt were obtained), SH-SY5Y cells transfected with APPswe and wild-type SH-SY5Y cells (ATCC, Manassas, Va.) were cultured as previously described^42. Primary hN2TM human neurons (Neuromics, Edina, Minn.) were cultured in hN2TM human neuron culture media and primary HCN2 human neurons (ATCC) were cultured in DMEM with 4 mM L-glutamine adjusted to contain 1.5 g/L sodium bicarbonate, 4.5 g/L glucose, fetal bovine serum (10%).

ApoE4: human recombinant apolipoprotein E4 protein (BioVision)
Aβ, β-CTF and sAPPα levels ([1]; 6KApoEp 10 μM, apoE4 10 μg/mL, 2 h): markedly increased Aβ and β-CTF levels, while reducing sAPPα levels | cell surface protein levels of LDLR or LRP1 ([1]; absence or presence of β- or γ-secretase inhibitors): did not alter cell surface protein levels of LDLR or LRP1 | Aβ and β-CTF levels in CHO/APPwt compared with CHO/APPswe cells [2]: enhanced Aβ and β-CTF levels much more in CHO/APPwt cells compared with CHO cells overexpressing APP with the Swedish mutation
